We go through 9 molecules from patent publication US20090286831A1, “VR1 Receptor Ligands and u-Opioid Receptor Ligands for the Treatment of Pain” (priority 2006, published 2009).

Read-outs that look alike come from different tables or passages of the source.

The target of experiment [1] is T1, human recombinant μ-opioid receptor (Homo sapiens, UniProt P35372).
T1 construct: expressed in transfected cells; host or cells: CHO-K1 cells (membrane preparation)
Description: Ki value at the μ-opioid receptor (Experiment 4). The format is binding.

In experiment [2] the target is T2, vanilloid receptor 1 (VR1/TRPV1) (Homo sapiens, UniProt Q8NER1).
T2 construct: expressed in transfected cells; host or cells: CHO K1 cells (ECACC), stably transfected
Description: FLIPR capsaicin assay. The format is cell-based, human or rat. The text has this: (§1) The agonist or antagonist effect of substances can be determined at the vanilloid receptor 1 (VR1/TRPV1) of the human and rat species with the assay described below. Accordingly, the Ca^2+ influx through the channel is quantified by means of a Ca^2+-sensitive dye (Fluo-4, Molecular Probes Europe BV, Leiden, The Netherlands) in the fluorescent imaging plate reader (FLIPR, Molecular Devices, Sunnyvale, USA).
(§2) Chinese hamster ovary cells (CHO K1 cells, ECACC, England) are stably transfected with human or rat VR1 cDNA. For functional studies these cells are plated onto poly-D-lysine-coated black 96-hole plates with a clear base (BD Biosciences, Heidelberg, Germany) in a density of 25 000 cells/cavity. The cells are incubated overnight at 37° C. with 5% CO2 in culture medium (nutrient mixture Ham's F12, Gibco Invitrogen GmbH, Karlsruhe, Germany) with 10% vol. FBS (foetal bovine serum, Gibco Invitrogen GmbH, Karlsruhe, Germany) and 18 μg/ml of L-proline (Gibco Invitrogen GmbH, Karlsruhe, Germany). On the following day, the cells are laden with 2 μM Fluo-4 and 0.01% vol. Pluronic F127 (Molecular Probes Europe BV, Leiden, The Netherlands) in HBSS buffer (Hank's buffered saline solution, Gibco Invitrogen GmbH, Karlsruhe, Germany) for 30 min at 37° C. The plates are then washed 3 times in HBSS buffer and after further incubation for 15 minutes at room temperature are placed in the FLIPR for the Ca^2+ measurement. In this case, the Ca^2+-dependent fluorescence is measured before and after the addition of substances (λex=488 nm, λem=540 nm). Quantification occurs as a result of the measurement of the highest fluorescence intensity (FC, fluorescence counts) over time.
The FLIPR protocol consists of 2 substance additions. Test substances (10 μM) are firstly pipetted onto the cells and the Ca^2+ influx is compared to the control (capsaicin 10 μM). This gives the specification in % activation in relation to the Ca^2+ signal after adding 10 μM of capsaicin. After 5 minutes incubation 100 nM of capsaicin are applied and the influx of Ca^2+ likewise determined. Desensitising agonists and antagonists lead to a suppression of the Ca^2+ influx. Inhibition values [%] are calculated in comparison to the maximum achievable inhibition with a saturating concentration of […] or another reference antagonist. The test substance is added in different concentrations to determine the IC50 and functional Ki value ((f)Ki). Triple determinations (n=3) are conducted and these are repeated in at least one further independent experiment (N>=2). A capsaicin dose action curve is generated to incorporate the thus determined EC50 values into the associated (f)Ki determination. EC50/IC50 values are calculated using ‘Prism4’ software from GraphPad Software™ or with XLfit4™ (ID Business Solutions Ltd.). (f)Ki values are calculated in accordance with the modified Cheng-Prusoff equation (Cheng, Prusoff; Biochem. Pharmacol. 22, 3099-3108, 1973). Testing for non-specific inhibition of the fluorescence as a result of the substances is conducted by activating wild type CHO K1 cells incubated with the same test substances with ATP (10 μM final concentration).

The target of experiment [3] is T3, human VR1 (Homo sapiens, UniProt Q8NER1).
T3 construct: expressed in transfected cells; host or cells: CHO K1 cells (ECACC), stably transfected
Description: FLIPR pH assay. Type of experiment: cell-based. Particulars: for IC50: human VR1-transfected CHO K1 cells, 60 mM MES, pH 4.95, read-out: IC50 (pH).
Description: as §1, §2
In the pH assay, HBSS that now contains 60 mM MES instead of capsaicin is applied to human VR1-transfected CHO K1 cells (adjusted pH value of the addition solution is 4.95). Percentage inhibition and IC50 values are raised and evaluated as already described for the capsaicin test.

For experiment [4], the system named is rats after spinal nerve ligature. Nature of the experiment: Mono-neuropathic pain after spinal nerve ligature (Chung model), electronic von Frey. The format is in vivo, rat. Here is the method: Sprague Dawley rats (140-160 g body weight) were used for the following animal models. Sprague Dawley rats (140-160 g body weight) from a commercial breeder (Janvier, Genest St. Isle, France) were used. The animals were kept under standard conditions: light-dark rhythm (06:00 to 18:00 h light, 18:00 to 06:00 h dark), room temperature 19-23° C., relative air humidity 45-65%, air exchange 19 times per hour, air movement <0.2 m/s, free choice of tap water and standard feed, Macrolon Type 4 cages with 5 animals per cage. The solutions of the test substances and/or vehicles (10% […], 5% Cremophor EL, 5% glucose) were administered intravenously.
Under pentobarbital narcosis (Narcoren®, […] i.p., Merial GmbH, Hallbergmoos, Germany), the L5, L6 spinal nerves were firmly bound. The left L5 and L6 spinal nerves were exposed by removing a piece of paravertebral muscle and a portion of the left spinal process of the L5 lumbar vertebral body. The L5 and L6 spinal nerves were carefully isolated and bound with a firm ligature (NC silk, black, USP 5/0, metric 1, Braun Melsungen AG, Melsungen, Germany) (Kim and Chung, An experimental model for peripheral neuropathy produced by segmental spinal nerve ligature in the rat, Pain, 50, 1992, 355-363). After haemostasis was determined, the muscle and adjacent tissue were sutured and the wound closed by metal clamps. After a one-week recovery period the animals were placed in cages with a wire base closed to the top by a plastic hood for measurement of the mechanical allodynia. The animals were kept in this cage until their explorative behaviour had decreased.
The threshold for the tactile allodynia was measured by means of an electronic von Frey anaesthesiometer (Somedic AB, Malmö, Sweden). The animals were randomly divided into groups of 10 animals. Each group received an individual dose of test substance or vehicle and the measurements were conducted 0.5 h before application and at various times after intravenous administration. Both the ipsi- and the contra-lateral rear paw were tested. The median of five stimulations gave a measured data point. The data were determined as % maximum possible effect (% MPE) from the pre-tests of the Chung individual animals (=0% MPE) and the test values of an independent sham control group (=100% MPE). The effect of the test substance and the vehicle was calculated for each measurement time (i.e. 0.5, 1 and 3 h after application) as inter-individual % MPE value. […] The corresponding threshold values are given in gram (mean±SEM).

Setting [5] is: functional Ki, capsaicin 100 nM, VR1-transfected CHO K1 cells, modified Cheng-Prusoff, read-out: f(Ki) (VR1).
[6] abbreviates: read-out: % inhibition (pH assay).
The mark [7] stands for this setting: Oxycodone 2.5 mg/kg i.v. group, Control (pre-test 0.5 h before application).
Where [8] appears, read: Oxycodone 2.5 mg/kg i.v., 30 min.
Setting [9] is: Oxycodone 2.5 mg/kg i.v., 60 min.
[10] abbreviates: Oxycodone 2.5 mg/kg i.v., 180 min.
Setting [11] is: Oxycodone 5 mg/kg i.v. group, Control (pre-test 0.5 h before application).
The mark [12] stands for this setting: Oxycodone 5 mg/kg i.v., 180 min.
Where [13] appears, read: AMG 517 2.5 mg/kg i.v. group, Control (pre-test 0.5 h before application).
[14] abbreviates: AMG 517 2.5 mg/kg i.v., 180 min.

T2 sequence (Q8NER1 whole entry): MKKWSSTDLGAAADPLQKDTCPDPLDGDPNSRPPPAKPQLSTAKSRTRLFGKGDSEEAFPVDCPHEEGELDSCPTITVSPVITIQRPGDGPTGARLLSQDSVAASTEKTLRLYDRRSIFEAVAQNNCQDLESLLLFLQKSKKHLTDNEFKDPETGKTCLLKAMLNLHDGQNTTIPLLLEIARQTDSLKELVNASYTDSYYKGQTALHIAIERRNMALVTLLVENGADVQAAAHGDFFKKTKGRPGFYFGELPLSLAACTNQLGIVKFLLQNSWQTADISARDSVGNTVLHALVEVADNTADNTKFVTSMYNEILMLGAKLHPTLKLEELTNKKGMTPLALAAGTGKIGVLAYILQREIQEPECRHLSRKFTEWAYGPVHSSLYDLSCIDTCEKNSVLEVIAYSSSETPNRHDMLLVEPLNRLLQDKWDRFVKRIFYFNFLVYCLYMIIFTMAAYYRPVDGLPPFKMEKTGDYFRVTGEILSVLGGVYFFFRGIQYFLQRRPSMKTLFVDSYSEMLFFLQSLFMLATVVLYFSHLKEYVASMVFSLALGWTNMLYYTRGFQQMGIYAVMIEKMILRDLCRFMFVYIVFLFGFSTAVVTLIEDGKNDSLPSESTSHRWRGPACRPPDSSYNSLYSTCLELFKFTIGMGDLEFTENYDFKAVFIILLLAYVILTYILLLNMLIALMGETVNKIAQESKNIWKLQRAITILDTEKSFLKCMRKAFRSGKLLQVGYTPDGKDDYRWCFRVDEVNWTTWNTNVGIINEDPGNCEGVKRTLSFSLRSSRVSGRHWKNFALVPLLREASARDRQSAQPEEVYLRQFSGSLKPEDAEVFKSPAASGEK
T3 sequence (Q8NER1 whole entry): as above
T1 sequence (P35372 whole entry): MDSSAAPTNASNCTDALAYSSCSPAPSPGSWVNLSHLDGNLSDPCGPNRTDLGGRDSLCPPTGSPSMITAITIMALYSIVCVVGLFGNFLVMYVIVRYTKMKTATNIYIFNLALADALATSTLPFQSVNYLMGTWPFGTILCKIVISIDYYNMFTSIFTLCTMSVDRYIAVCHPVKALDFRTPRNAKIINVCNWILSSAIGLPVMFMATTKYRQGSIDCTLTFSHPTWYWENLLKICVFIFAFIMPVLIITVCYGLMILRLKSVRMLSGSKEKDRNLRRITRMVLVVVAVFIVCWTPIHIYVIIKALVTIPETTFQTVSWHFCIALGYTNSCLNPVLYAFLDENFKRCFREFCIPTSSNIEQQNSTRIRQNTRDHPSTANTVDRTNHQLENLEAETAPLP

Broadly, the Ki is the equilibrium dissociation constant of an inhibitor or competing ligand from its target. One may read the IC50 as the midpoint of a concentration-inhibition curve. Consider `CC(C(=O)NCc1ccc(C(F)(F)F)nc1N1CCC(c2cccs2)(N(C)C)CC1)c1ccc(NS(C)(=O)=O)c(F)c1` (stereo not shown) [[3], N-((2-(4-(dimethylamino)-4-(thiophen-2-yl)piperidin-1-yl)-6-(trifluoromethyl)pyridin-3-yl)methyl)-2-(3-fluoro-4-(methylsulfonamido)phenyl)propanamide], for which the inhibitory constant (Ki) in experiment [1] amounted to 119 nM; in experiment [2], 10.9 nM. Moreover, in experiment [3], the IC50 came to 335 nM.

Turning to `CC(C(=O)NCc1ccc(C(C)(C)C)nc1N1CCC(c2ccccc2)(N(C)C)CC1)c1ccc(NS(C)(=O)=O)c(F)c1` (stereo not shown) [[2], N-((6-tert-butyl-2-(4-(dimethylamino)-4-phenylpiperidin-1-yl)pyridin-3-yl)methyl)-2-(3-fluoro-4-(methylsulfonamido)phenyl)propanamide], the Ki in experiment [1] was determined as 350 nM; in experiment [2] it was 3.7 nM. Further, the IC50 in experiment [3] was determined as 368 nM.

As usually defined, the inhibition is the share of the control response that was lost under treatment. As to `Cc1cc(C(C)C(=O)NCc2ccc(C(F)(F)F)cc2N2CCC(Cc3cccc(F)c3)(N(C)C)CC2)ccc1NS(C)(=O)=O` (stereo not shown) [[11], N-(2-(4-(dimethylamino)-4-(3-fluorobenzyl)piperidin-1-yl)-4-(trifluoromethyl)benzyl)-2-(3-methyl-4-(methylsulfonamido)phenyl)propanamide], the inhibition constant Ki in experiment [1] stood at 50 nM. Besides, the inhibition constant Ki in experiment [2] (setting [5]) was 1.6 nM. In addition, in experiment [3] (setting [6]), the inhibition at 5 µM worked out at 35% and the inhibition at 10 µM amounted to 38%.

In the case of `CC(C(=O)NCc1ccc(C(F)(F)F)nc1N1CCC(Cc2ccccc2)(N(C)C)CC1)c1ccc(NS(C)(=O)=O)c(F)c1` (stereo not shown) [[5], N-((2-(4-benzyl-4-(dimethylamino)piperidin-1-yl)-6-(trifluoromethyl)pyridin-3-yl)methyl)-2-(3-fluoro-4-(methylsulfonamido)phenyl)propanamide], the inhibitory constant (Ki) in experiment [1] is 715 nM; in experiment [2], 6.3 nM. Also, in experiment [3], the IC50 was found to be 111 nM.

Turning to `COc1ccc2c3c1O[C@H]1C(=O)CC[C@@]4(O)[C@@H](C2)N(C)CC[C@]314` [Oxycodone, oxycodone], the “pull-away threshold value, contra-lateral rear paw, mean” value is listed as 54.0 gram in experiment [4] (setting [7]); 67.8 gram in experiment [4] (setting [8]); 53.1 gram in experiment [4] (setting [9]); 52.5 gram in experiment [4] (setting [10]); 52.6 gram in experiment [4] (setting [11]); 70.0 gram in experiment [4] (Oxycodone 5 mg/kg i.v., 30 min). For the same molecule, the “pull-away threshold value, contra-lateral rear paw, mean” value in experiment [4] (Oxycodone 5 mg/kg i.v., 60 min) is 56.4 gram; in experiment [4] (setting [12]) it was 51.4 gram. For the same molecule, the “pull-away threshold value, ipsi-lateral rear paw, mean” value was 21.0 gram in experiment [4] (setting [7]); 38.2 gram in experiment [4] (setting [8]); 28.0 gram in experiment [4] (setting [9]); 21.9 gram in experiment [4] (setting [10]); 22.8 gram in experiment [4] (setting [11]); 41.9 gram in experiment [4] (Oxycodone 5 mg/kg i.v., 30 min). The “pull-away threshold value, ipsi-lateral rear paw, mean” value amounted to 32.1 gram in experiment [4] (Oxycodone 5 mg/kg i.v., 60 min) and 22.0 gram in experiment [4] (setting [12]). In experiment [4] (combination of two threshold doses of the same opioid, pull away increased on ipsi- and contra-lateral paw), the “efficacy (conclusion)” value is “additive antinociceptive efficacy”.

As for `CC(C(=O)NCc1ccc(C(C)(C)C)nc1N1CCC(Cc2ccccc2)(N(C)C)CC1)c1ccc(NS(C)(=O)=O)c(F)c1` (stereo not shown) [[6], N-((2-(4-benzyl-4-(dimethylamino)piperidin-1-yl)-6-tert-butylpyridin-3-yl)methyl)-2-(3-fluoro-4-(methylsulfonamido)phenyl)propanamide], the figures for the inhibition constant (Ki) in experiment [1] and in experiment [2] were 3130 nM and 2.6 nM, respectively. For the same molecule, the half-maximal inhibitory concentration (IC50) in experiment [3] was determined as 1360 nM.

In the case of `CC(C(=O)NCc1ccc(C(F)(F)F)nc1N1CCC(Cc2cccc(F)c2)(N(C)C)CC1)c1ccc(NS(C)(=O)=O)c(F)c1` (stereo not shown) [[9], N-((2-(4-(dimethylamino)-4-(3-fluorobenzyl)piperidin-1-yl)-6-(trifluoromethyl)pyridin-3-yl)methyl)-2-(3-fluoro-4-(methylsulfonamido)phenyl)propanamide], the results for the Ki in experiment [1] and in experiment [2] were 2080 nM and 2.4 nM, respectively. Further, in experiment [3], the half-inhibitory concentration (IC50) amounted to 145 nM.

Consider `CC(=O)Nc1nc2c(Oc3cc(-c4ccc(C(F)(F)F)cc4)ncn3)cccc2s1` [AMG 517], for which the “pull-away threshold value, contra-lateral rear paw, mean” value is on record as 49.9 gram in experiment [4] (setting [13]); 50.9 gram in experiment [4] (AMG 517 2.5 mg/kg i.v., 30 min); 49.6 gram in experiment [4] (AMG 517 2.5 mg/kg i.v., 60 min); 51.7 gram in experiment [4] (setting [14]). Further, the “pull-away threshold value, ipsi-lateral rear paw, mean” value turned out to be 20.6 gram in experiment [4] (setting [13]); 29.2 gram in experiment [4] (AMG 517 2.5 mg/kg i.v., 30 min); 21.1 gram in experiment [4] (AMG 517 2.5 mg/kg i.v., 60 min); 20.7 gram in experiment [4] (setting [14]).

As to `Cc1cc(C(C)C(=O)NCc2ccc(C(F)(F)F)cc2N2CCC(Cc3ccccc3)(N(C)C)CC2)ccc1NS(C)(=O)=O` (stereo not shown) [[8], N-(2-(4-benzyl-4-(dimethylamino)piperidin-1-yl)-4-(trifluoromethyl)benzyl)-2-(3-methyl-4-(methylsulfonamido)phenyl)propanamide], the Ki in experiment [1] stood at 22 nM. The inhibition constant Ki in experiment [2] (setting [5]) came out at 2.5 nM. In addition, in experiment [3] (setting [6]), the inhibition at 1 µM came to 19%, the inhibition at 5 µM amounted to 36% and the inhibition at 10 µM was 58%.
